We go through 27 compounds from PubChem BioAssay AID340 (DTP/NCI, 2004).

In this assay the test system is CD2F1 mice, ip reticulum cell sarcoma, survival T/C. Description: NCI In Vivo Anticancer Drug Screen. Data for tumor model Reticulum Cell Sarcoma (Kelley Mouse) (intraperitoneal) in CD2F1 (CDF1) mice. The conditions noted are these: endpoint: median survival time, schedule: Q01DX010 (ip), higher = longer survival. As to the method:
The antitumor activity of compounds was measured in mice bearing transplantable tumors. Survival or tumor size were measured and the results are expressed as the measurement made in the treated group (T) divided by the measurement made in the vehicle treated control group (C). The tumor model used in this assay is Reticulum Cell Sarcoma (Kelley Mouse) (intraperitoneal) in CD2F1 (CDF1) mice

Where [1] appears, read: dose: 1.0 mg/kg/injection, vehicle: saline.
[2] abbreviates: dose: 2.0 mg/kg/injection, vehicle: saline.
[3] abbreviates: dose: 3.13 mg/kg/injection, vehicle: saline.
The mark [4] stands for this setting: dose: 6.25 mg/kg/injection, vehicle: saline.
The mark [5] stands for this setting: dose: 12.5 mg/kg/injection, vehicle: saline.
The mark [6] stands for this setting: dose: 25.0 mg/kg/injection, vehicle: saline.
The mark [7] stands for this setting: dose: 1.25 mg/kg/injection, vehicle: saline.
The mark [8] stands for this setting: dose: 2.5 mg/kg/injection, vehicle: saline.
[9] abbreviates: dose: 5.0 mg/kg/injection, vehicle: saline.
Where [10] appears, read: dose: 10.0 mg/kg/injection, vehicle: saline.
Setting [11] is: dose: 20.0 mg/kg/injection, vehicle: saline.
Setting [12] is: dose: 80.0 mg/kg/injection, vehicle: saline.
The mark [13] stands for this setting: dose: 40.0 mg/kg/injection, vehicle: saline.
Where [14] appears, read: dose: 50.0 mg/kg/injection, vehicle: saline.
[15] abbreviates: dose: 100.0 mg/kg/injection, vehicle: saline.
[16] abbreviates: dose: 200.0 mg/kg/injection, vehicle: saline.
[17] abbreviates: dose: 62.5 mg/kg/injection, vehicle: saline.
Where [18] appears, read: dose: 125.0 mg/kg/injection, vehicle: saline.
The mark [19] stands for this setting: dose: 250.0 mg/kg/injection, vehicle: saline.
Where [20] appears, read: dose: 500.0 mg/kg/injection, vehicle: saline.
Where [21] appears, read: dose: 8.0 mg/kg/injection, vehicle: saline.
The mark [22] stands for this setting: dose: 31.3 mg/kg/injection, vehicle: saline.
Where [23] appears, read: dose: 4.0 mg/kg/injection, vehicle: saline.

Several values for one entry are separate records, joined by “and”; a condition that tells them apart may be missing. Identical values can stand only once. Toxic doses and inconclusive results are not listed.

With `CS(=O)(=O)OCCN(CCOS(C)(=O)=O)c1ccc(N=O)cc1`, the T/C was 103 % of control and 110 % of control under setting [1]; 96 % of control under setting [2]; 116 % of control (dose: 62.5 micrograms/kg/injection, vehicle: saline); 166 % of control (dose: 250.0 micrograms/kg/injection, vehicle: saline); 175 % of control (dose: 500.0 micrograms/kg/injection, vehicle: saline).
Consider `CCCNc1ncnc2[nH]ncc12`, for which the T/C by setting is: under setting [3], 97 % of control and 100 % of control; under setting [4], 97 % of control and 100 % of control; under setting [5], 97 % of control and 105 % of control; under setting [6], 100 % of control and 102 % of control.
Take `N#[N+]c1cnc([O-])[nH]c1=O`: the T/C reads like this: under setting [7], 100 % of control; under setting [8], 100 % of control and 112 % of control; under setting [9], 112 % of control and 118 % of control; under setting [10], 106 % of control.
For `OCC1OC(n2cnc3c(=S)nc[nH]c32)C(O)C1O` (configuration not stated), the T/C was 117 % of control under setting [11]; 170 % of control and 177 % of control under setting [12]; 180 % of control (dose: 160.0 mg/kg/injection, vehicle: saline).
In the case of `Cc1cc(N(CCCl)CCCl)ccc1N=Nc1ccccc1C(=O)O`, the T/C reads like this: under setting [9], 100 % of control; under setting [10], 103 % of control; under setting [11], 113 % of control and 122 % of control; under setting [13], 106 % of control.
As for `CS(=O)(=O)OCC(O)C(O)C(O)C(O)COS(C)(=O)=O` (configuration not stated), the T/C is 102 % of control under setting [6]; 100 % of control and 111 % of control under setting [14]; 100 % of control and 102 % of control under setting [15]; 100 % of control and 111 % of control under setting [16]; 110 % of control (dose: 400.0 mg/kg/injection, vehicle: saline).
Regarding `O=NN(CCCl)C(=O)NCCCl`, the T/C under setting [4] is 194 % of control and 200 % of control; the T/C under setting [5] was 97 % of control and 110 % of control.
`NC(Cc1ccc(N(CCCl)CCCl)cc1)C(=O)O` (configuration not stated): the T/C under setting [10] is 100 % of control.
With `OCC1OC(n2cnc3c(Cl)ncnc32)C(O)C1O` (configuration not stated), the T/C by setting is: under setting [17], 97 % of control and 100 % of control; under setting [18], 92 % of control and 100 % of control; under setting [19], 95 % of control and 102 % of control; under setting [20], 91 % of control and 92 % of control.
Turning to `O=C(Nc1ccc(C2=NCCN2)cc1)c1ccc(C(=O)Nc2ccc(C3=NCCN3)cc2)c([N+](=O)[O-])c1`, the T/C was 168 % of control (dose: 6.0 mg/kg/injection, vehicle: saline); 255 % of control and 297 % of control under setting [21]; 281 % of control and 300 % of control (dose: 12.0 mg/kg/injection, vehicle: saline).
For `CSc1ncnc2nc[nH]c12`, the T/C by setting is: under setting [6], 100 % of control; under setting [14], 100 % of control; under setting [15], 93 % of control; under setting [16], 100 % of control.
With `N=[N+]=CC(=O)OCC(N)C(=O)O` (configuration not stated), the T/C runs as follows: under setting [3], 106 % of control; under setting [4], 113 % of control; under setting [5], 120 % of control; under setting [6], 116 % of control.
Turning to `CN(C)c1ccc(Nc2c3ccccc3nc3ccccc23)cc1`, the T/C by setting is: (dose: 54.0 mg/kg/injection, vehicle: saline) 159 % of control and 183 % of control; under setting [12], 183 % of control and 187 % of control; (dose: 120.0 mg/kg/injection, vehicle: saline) 86 % of control.
As to `O=C(Nc1ccc(C2=NCCCN2)cc1)c1ccc(C(=O)Nc2ccc(C3=NCCCN3)cc2)cc1`, the T/C by setting is: (dose: 0.5 mg/kg/injection, vehicle: other) 117 % of control and 120 % of control; (dose: 1.0 mg/kg/injection, vehicle: other) 186 % of control and 202 % of control; (dose: 2.0 mg/kg/injection, vehicle: other) 248 % of control.
Consider `Nc1nc(N)c2nc(CNc3ccc(C(=O)NC(CCC(=O)O)C(=O)O)cc3)cnc2n1` (configuration not stated), for which the T/C reads like this: (dose: 25.0 micrograms/kg/injection, vehicle: other) 105 % of control and 113 % of control; (dose: 50.0 micrograms/kg/injection, vehicle: other) 107 % of control and 121 % of control; (dose: 100.0 micrograms/kg/injection, vehicle: other) 110 % of control and 121 % of control; (dose: 200.0 micrograms/kg/injection, vehicle: other) 94 % of control and 113 % of control.
Turning to `CCN(CC)CCNc1ccc(C)c2sc3ccccc3c(=O)c12`, the T/C is 106 % of control under setting [15]; 103 % of control and 106 % of control under setting [16].
On to `Nc1c(Br)cc2c(c1Br)Cc1cc([N+](=O)[O-])ccc1-2`, for which the T/C is, setting by setting: (dose: 15.6 mg/kg/injection, vehicle: saline) 100 % of control; under setting [22], 100 % of control; under setting [17], 88 % of control and 103 % of control; under setting [18], 94 % of control and 100 % of control.
For the compound `CN(C)c1ccc(/C=C/c2ccnc3ccccc23)cc1`, the T/C is, setting by setting: under setting [9], 100 % of control; under setting [10], 100 % of control and 112 % of control; under setting [11], 96 % of control and 100 % of control; under setting [13], 96 % of control and 103 % of control.
As for `Oc1cc(CN(CCCl)CCCl)c(O)cc1CN(CCCl)CCCl`, the T/C is, setting by setting: (dose: 0.63 mg/kg/injection, vehicle: saline) 100 % of control; under setting [7], 100 % of control; under setting [8], 106 % of control; under setting [9], 100 % of control.
Regarding `CCCCNc1ncnc2c1cnn2C`, the T/C was 95 % of control and 100 % of control under setting [22]; 94 % of control and 102 % of control under setting [17]; 90 % of control and 100 % of control under setting [18].
In the case of `CCCSc1ncnc2nc[nH]c12`, the T/C was 100 % of control and 112 % of control under setting [22]; 96 % of control and 106 % of control under setting [17]; 96 % of control and 106 % of control under setting [18]; 109 % of control under setting [19].
In the case of `NC(CCSCc1ccc(N(CCCl)CCCl)cc1)C(=O)O` (configuration not stated), the T/C was 100 % of control (dose: 4.5 mg/kg/injection, vehicle: saline); 106 % of control and 117 % of control (dose: 9.0 mg/kg/injection, vehicle: saline); 106 % of control and 117 % of control (dose: 18.0 mg/kg/injection, vehicle: saline); 110 % of control and 111 % of control (dose: 36.0 mg/kg/injection, vehicle: saline).
For `CN(C)c1nc(N(C)C)nc(N(C)C)n1`, the T/C was 100 % of control and 103 % of control (dose: 18.8 mg/kg/injection, vehicle: saline); 93 % of control and 106 % of control (dose: 37.5 mg/kg/injection, vehicle: saline); 100 % of control and 109 % of control (dose: 75.0 mg/kg/injection, vehicle: saline); 100 % of control and 106 % of control (dose: 150.0 mg/kg/injection, vehicle: saline).
As to `C[C@@H]1C[C@@H]([C@H](O)CC2CC(=O)NC(=O)C2)C(=O)[C@@H](C)C1`, the T/C is, setting by setting: under setting [9], 97 % of control and 100 % of control; under setting [10], 105 % of control and 108 % of control; under setting [11], 120 % of control; under setting [13], 105 % of control.
Turning to `CCOC(N)=O`, the T/C reads like this: under setting [18], 102 % of control; under setting [19], 97 % of control and 102 % of control; under setting [20], 100 % of control and 102 % of control; (dose: 1000.0 mg/kg/injection, vehicle: saline) 88 % of control and 100 % of control.
Turning to `CC(CCC(C)OS(C)(=O)=O)OS(C)(=O)=O` (configuration not stated), the T/C by setting is: under setting [23], 100 % of control; under setting [21], 103 % of control and 106 % of control; (dose: 16.0 mg/kg/injection, vehicle: saline) 100 % of control and 109 % of control; (dose: 32.0 mg/kg/injection, vehicle: saline) 109 % of control and 112 % of control.
For `Nc1nc(=S)c2ncn(C3OC(CO)C(O)C3O)c2[nH]1` (configuration not stated), the T/C under setting [1] is 178 % of control, the T/C under setting [2] was 182 % of control and the T/C under setting [23] was 103 % of control.
